No end group written: not given here.

By IC50 is commonly meant the concentration needed to halve the response being measured. A low value points to higher potency.

For one test, the system named is ciliary ganglion neurons. Kind of test: Cell attachment assay on immobilized substrata, ciliary ganglion neurons. In kind it is cell-based, chick. Here is the method: (§1) Substrates were immobilized to tissue culture dishes as described by Lagenaur and Lemmon, Proc. Natl. Acad. Sci. USA 84, 7753-7757 (1987). Briefly, nitrocellulose (BA85; Schleicher and Schuell, Keene, N.H.) was dissolved in methanol (1 cm^2 /ml), applied to tissue culture wells (90 µl per 16 mm diameter well) and allowed to dry. Drops (1.5-3 μl) of substrates in solution were applied and allowed to bind for 20 min. after which the drops were aspirated. Nonspecific binding sites on the nitrocellulose were then blocked by incubating wells with the following series of solutions: 10 mg/ml bovine serum albumin (BSA; Sigma) in PBS for ~1 min; 30 mg/ml BSA in PBS for 2-3 hr; Earles' Minimum Essential Medium (MEM) containing 2% fetal bovine serum and 25 mM HEPES, pH 7.4, for 5 min; PBS, twice briefly; and Earles' MEM containing 1 mg/ml BSA and 25 mM HEPES, pH 7.4, for 30 min at 37° C. in a humidified chamber containing 7% CO2. At this point, neurons were added, with or without synthetic peptides, and incubated for 2 hr at 37° C. Finally, the wells were washed twice with PBS pre-warmed to 37° and adherent cells were fixed in place with 2% paraformaldehyde and 2% glutaraldehyde in PBS.
Neurons were dissociated from chick ciliary ganglia as previously described by Nishi and Berg, Proc. Natl. Acad. Sci. USA 74, 5171-5175 (1977);
Covault et al., J. Cell Biol. 105, 2479-2488 (1987). Each well received ~5000 neurons, which corresponds to ~1 E8 ganglia, ~1.5 E10 ganglia, and ~2 E13 ganglia (E8, E10 and E13 are stages of development of the embryonic chick) [neuronal death is occurring over this time course; Landmessen and Pilar, J. Physiol. 241, 715-736 (1974)]. Chick dorsal root ganglia and optic tecta were dissociated in the same manner; each well received cells from 4-5 dorsal root ganglia or 0.25 optic tecta. For B35 and B104 cell lines, each well received 20,000 cells. For PC12 cells, each well received 5000 cells. In some tests, PC12 cells were grown with 50 ng/ml nerve growth factor (NGF) for 3-6 days before use. All cells were suspended in Earles' MEM containing 1 mg/ml BSA and 25 mM HEPES, pH 7.4, for addition to tissue culture wells.
Cell attachment assays were performed as described hereinbefore.

Test [1] concerns adhesion of ciliary neurons to pET-RK36 s-laminin fragment. The following applies: for Inhibition of neuronal adhesion to pET-RK36 / s-laminin (in words): concentration not given.
Test [2] has as its system neurons and neuron-like cells. Kind of test: Cell attachment assay, each cell type of Table 1. The format is cell-based. The following applies: for each cell type, Table 1 footnote. Here is the method: as §1
Covault et al., J. Cell Biol. 105, 2479-2488 (1987). […]

Test [3] has as its system dorsal root ganglion neurons. The test can be described thus: Cell attachment assay on immobilized substrata, dorsal root ganglion neurons. In kind it is cell-based, chick. The following applies: sensory neurons (cell type implied by context). The protocol:
as §1, with “Finally, the wells were washed twice with PBS pre-warmed to 37° and adherent cells were fixed in place with 2% paraformaldehyde and 2% glutaraldehyde in PBS.” left out
(§2) Ciliary neurons were selected for initial tests because many of these neurons normally form neuromuscular junctions on striated muscle fibers in vivo [Pilar et al., J. Neurophys. […] To extend these tests, it was determined whether neurons of other types also adhered to the s-laminin fragments. […]

The next test concerns tectal neurons. Kind of test: Cell attachment assay on immobilized substrata, tectal neurons. The format is cell-based, chick. The note with it: 2 hr. Here is the method:
as §1, with “Finally, the wells were washed twice with PBS pre-warmed to 37° and adherent cells were fixed in place with 2% paraformaldehyde and 2% glutaraldehyde in PBS.” left out
as §2

With poly-lysine, in the test with ciliary ganglion neurons (ciliary neurons, each stage E8-E13), the “More neurons adhered to poly-lysine than to either laminin or s-laminin” value is listed as 30-50%.

As for LREQVG [Peptide M513], the “Inhibition of neuronal adhesion to pET-RK36 / s-laminin (in words)” value in test [1] is recorded as “inhibitory”.

In test [1], AEKQLREQVGDQYQTVRALAE [Peptide M5] had an IC50 of 10 to 20 µM.

Regarding AEKQLREQVGD [Peptide M51], in test [1], the IC50 was in the range of 10 to 20 µM and the “IC50 for inhibition of neuronal adhesion to pET-RK36” value is on record as ~ 20 μg/ml.

β-galactosidase: pure β-galactosidase: the “Attachment of ciliary neurons to recombinant proteins / bacterial extracts (FIG. 2)” value with ciliary ganglion neurons (control for vector-encoded sequences) is “no significant attachment”.

As for laminin, in the test on ciliary ganglion neurons (2 hour assay, optimal concentration of substrate on nitrocellulose), the “Applied ciliary neurons adhered” value is reported as 30-40%. Besides, the “Adhesion of ciliary neurons to substrate (FIG. 3)” value in the test on ciliary ganglion neurons (2 hr, laminin 100 μg/ml, pET-RK36 10 μg/ml) was “adhere well”. The “Optimal concentration in molar terms” value in the test on ciliary ganglion neurons (Mr ~900,000 laminin, ~20,000 s-laminin fragment) was ~ 0.5 μM. In the test with ciliary ganglion neurons (ciliary neurons), the “Concentration of applied solution giving maximal adhesion” value was ~ 500 μg/ml and the “Lowest concentration in solution with significant adhesion” value was 20 µg/mL. Moreover, the “Cells applied that adhered to laminin” value in test [2] is given as 20. In test [3], the “Fold more cells adhered to laminin than to s-laminin” value is recorded as “at least 10 fold”. Further, the “Adhesion of tectal cells to substrate (FIG. 3)” value in the test on tectal neurons was “adhere well”.

Consider KQLREQ [Peptide M512], for which, in test [1], the “Inhibition of neuronal adhesion to pET-RK36 / s-laminin (in words)” value is “inhibitory”.

With AEKQLR [Peptide M511], the “Inhibition of neuronal adhesion to pET-RK36 / s-laminin (in words)” value in test [1] is on record as “inhibiting activity is not shown”.

The values above are taken from patent US5003044A, “Peptide inhibitors of motor neuron attachment to s-laminin” (Washington University, priority 1989, dated 1991).
